Assay results reported in patent publication US20250382273A1 (INSTITUT NATIONAL DE LA SANTE ET DE LA RECHERCHE MEDICALE, priority 2022, published 2025).
Read-outs that look alike come from different tables or passages of the source.

System: M. tuberculosis H37Rv_DdnL49P_gfp
Type: cell-based, Mycobacterium tuberculosis
[1] = read-out: EC50 H37Rv_DdnL49P_gfp
[2] = in combination with pretomanid, unit inferred, read-out: average EC50 H37Rv_DdnL49P_gfp

Structure (SMILES)	EC50 [1] [nM]	EC50 [2] [nM]
O=C(Nc1nc2ccc(-c3cccc(C(F)(F)F)c3)cc2s1)[C@@H]1C2C=CC(C2)[C@@H]1C(=O)O (stereo partly drawn) [Example 59, 3-[[6-[3-(trifluoromethyl)phenyl]-1,3-benzothiazol-2-yl]carbamoyl]bicyclo[2.2.1]hept-5-ene-2-carboxylic acid]	1000 to 5000	
O=C(Nc1nc2ccc(-c3ccc(C(F)(F)F)cc3)cc2s1)[C@@H]1C2C=CC(C2)[C@@H]1C(=O)O (stereo partly drawn) [Example 60, 3-[[6-[4-(trifluoromethyl)phenyl]-1,3-benzothiazol-2-yl]carbamoyl]bicyclo[2.2.1]hept-5-ene-2-carboxylic acid]	< 1000	480
O=C1[C@@H]2[C@H](C(=O)N1c1nc3ccc(-c4ccc(C(F)(F)F)cc4)cc3s1)[C@@H]1C=C[C@H]2C1 [Example 61, (1R,2S,6R,7S)-4-[6-[4-(trifluoromethyl)phenyl]-1,3-benzothiazol-2-yl]-4-azatricyclo[5.2.1.02,6]dec-8-ene-3,5-dione]	< 1000	
O=C(Nc1nc2ccc(-c3ccc(OC(F)(F)F)cc3)cc2s1)[C@@H]1C2C=CC(C2)[C@@H]1C(=O)O (stereo partly drawn) [Example 62, 3-[[6-[4-(trifluoromethoxy)phenyl]-1,3-benzothiazol-2-yl]carbamoyl]bicyclo[2.2.1]hept-5-ene-2-carboxylic acid]	< 1000	
O=C1[C@@H]2[C@H](C(=O)N1c1nc3ccc(-c4ccc(O)cc4)cc3s1)[C@@H]1C=C[C@H]2C1 [Example 63, (1R,2S,6R,7S)-4-[6-(4-hydroxyphenyl)-1,3-benzothiazol-2-yl]-4-azatricyclo[5.2.1.02,6]dec-8-ene-3,5-dione]	5000 to 10000	
O=C(Nc1nc2ccc(-c3ccncc3)cc2s1)[C@@H]1C2C=CC(C2)[C@@H]1C(=O)O (stereo partly drawn) [Example 64, 3-[[6-(4-pyridyl)-1,3-benzothiazol-2-yl]carbamoyl]bicyclo[2.2.1]hept-5-ene-2-carboxylic acid]	5000 to 10000	
O=C1[C@@H]2C3C=CC(C3)[C@@H]2C(=O)N1c1nc2ccc(-c3ccc(F)nc3)cc2s1 [Example 65, (1R,2S,6R,7S)-4-[6-(6-fluoro-3-pyridyl)-1,3-benzothiazol-2-yl]-4-azatricyclo[5.2.1.02.6]dec-8-ene-3,5-dione]	1000 to 5000	
O=C(O)C1C2C=CC(C2)[C@H]1C(=O)Nc1nc2ccc(-c3ccc(C(F)(F)F)nc3)cc2s1 (stereo partly drawn) [Example 66, 3-[[6-[6-(trifluoromethyl)-3-pyridyl]-1,3-benzothiazol-2-yl]carbamoyl]bicyclo [2.2.1]hept-5-ene-2-carboxylic acid]	1000 to 5000	
O=C1[C@@H]2[C@H](C(=O)N1c1nc3ccc(-c4ccc(C(F)(F)F)nc4)cc3s1)[C@@H]1C=C[C@H]2C1 [Example 67, (1R,2S,6R,7S)-4-[6-[6-(trifluoromethyl)-3-pyridyl]-1,3-benzothiazol-2-yl]-4-azatricyclo [5.2.1.02,6]dec-8-ene-3,5-dione]	1000 to 5000	
O=C1[C@@H]2[C@H](C(=O)N1c1nc3ccc(-c4ccsc4)cc3s1)[C@@H]1C=C[C@H]2C1 [Example 68, (1R,2S,6R,7S)-4-[6-(3-thienyl)-1,3-benzothiazol-2-yl]-4-azatricyclo[5.2.1.02,6]dec-8-ene-3,5-dione]	1000 to 5000	
O=C(Nc1nc2ccc(-c3ccoc3)cc2s1)[C@@H]1C2C=CC(C2)[C@@H]1C(=O)O (stereo partly drawn) [Example 69, 3-[[6-(3-furyl)-1,3-benzothiazol-2-yl]carbamoyl]bicyclo[2.2.1]hept-5-ene-2-carboxylic acid]	< 1000	
O=C1[C@@H]2[C@H](C(=O)N1c1nc3ccc(-c4ccoc4)cc3s1)[C@@H]1C=C[C@H]2C1 [Example 70, (1R,2S,6R,7S)-4-[6-(3-furyl)-1,3-benzothiazol-2-yl]-4-azatricyclo[5.2.1.02,6]dec-8-ene-3,5-dione]	1000 to 5000	
C#CCOc1ccc(-c2ccc3nc(N4C(=O)[C@@H]5[C@H](C4=O)[C@@H]4C=C[C@H]5C4)sc3c2)cc1 [Example 71, (1R,2S,6R,7S)-4-[6-(4-prop-2-ynoxyphenyl)-1,3-benzothiazol-2-yl]-4-azatricyclo[5.2.1.02,6]dec-8-ene-3,5-dione]	< 1000	
C#Cc1ccc2nc(N3C(=O)[C@@H]4[C@H](C3=O)[C@@H]3C=C[C@H]4C3)sc2c1 [Example 72, (1R,2S,6R,7S)-4-(6-ethynyl-1,3-benzothiazol-2-yl)-4-azatricyclo[5.2.1.02,6]dec-8-ene-3,5-dione]	1000 to 5000	
C#CCOc1ccc2nc(N3C(=O)[C@@H]4[C@H](C3=O)[C@@H]3C=C[C@H]4C3)sc2c1 [Example 73, (1R,2S,6R,7S)-4-(6-prop-2-ynoxy-1,3-benzothiazol-2-yl)-4-azatricyclo[5.2.1.02,6]dec-8-ene-3,5-dione]	< 1000	
O=C1[C@@H]2C3C=CC(C3)[C@@H]2C(=O)N1c1nc2c(O)cccc2s1 [Example 74]	1000 to 5000	
C#CCOc1cccc2sc(NC(=O)[C@@H]3C4C=CC(C4)[C@@H]3C(=O)O)nc12 (stereo partly drawn) [Example 75, 3-[(4-prop-2-ynoxy-1,3-benzothiazol-2-yl)carbamoyl]bicyclo[2.2.1]hept-5-ene-2-carboxylic acid]	1000 to 5000	

Structure (SMILES)	EC50 [1] [nM]	EC50 [2] [nM]
O=C(Nc1nc2ccc(C#Cc3ccccc3)cc2s1)[C@@H]1C2C=CC(C2)[C@@H]1C(=O)O (stereo partly drawn) [Example 77, 3-[[6-(2-phenylethynyl)-1,3-benzothiazol-2-yl]carbamoyl]bicyclo[2.2.1]hept-5-ene-2-carboxylic acid]	< 1000	
CC(C)(C)C#Cc1ccc2nc(NC(=O)[C@@H]3C4C=CC(C4)[C@@H]3C(=O)O)sc2c1 (stereo partly drawn) [Example 78, 3-[[6-(3,3-dimethylbut-1-ynyl)-1,3-benzothiazol-2-yl]carbamoyl]bicyclo [2.2.1]hept-5-ene-2-carboxylic acid]	< 1000	220
O=C(Nc1nc2ccc(C#CC3CC3)cc2s1)[C@@H]1C2C=CC(C2)[C@@H]1C(=O)O (stereo partly drawn) [Example 79, 3-[[6-(2-cyclopropylethynyl)-1,3-benzothiazol-2-yl]carbamoyl]bicyclo[2.2.1]hept-5-ene-2-carboxylic acid]	< 1000	
O=C(Nc1nc2ccc(-c3cncnc3)cc2s1)[C@@H]1C2C=CC(C2)[C@@H]1C(=O)O (stereo partly drawn) [Example 80, 3-[(6-pyrimidin-5-yl-1,3-benzothiazol-2-yl)carbamoyl]bicyclo[2.2.1]hept-5-ene-2-carboxylic acid]	10000 to 20000	
O=C(Nc1nc2ccc(-c3ccc4ncccc4c3)cc2s1)[C@@H]1C2C=CC(C2)[C@@H]1C(=O)O (stereo partly drawn) [Example 81, 3-[[6-(6-quinolyl)-1,3-benzothiazol-2-yl]carbamoyl]bicyclo[2.2.1]hept-5-ene-2-carboxylic acid]	1000 to 5000	
Cc1ccnc(Nc2ccc3nc(NC(=O)[C@@H]4C5C=CC(C5)[C@@H]4C(=O)O)sc3c2)c1 (stereo partly drawn) [Example 84, 3-[[6-[(4-methyl-2-pyridyl)amino]-1,3-benzothiazol-2-yl]carbamoyl]bicyclo[2.2.1]hept-5-ene-2-carboxylic acid]	1000 to 5000	
O=C(Nc1nc2ccc(Nc3cc(F)ccn3)cc2s1)[C@@H]1C2C=CC(C2)[C@@H]1C(=O)O (stereo partly drawn) [Example 85, 3-[[6-[(4-fluoro-2-pyridyl)amino]-1,3-benzothiazol-2-yl]carbamoyl]bicyclo[2.2.1]hept-5-ene-2-carboxylic acid]	< 1000	
O=C(Nc1nc2ccc(Nc3ccc(F)cn3)cc2s1)[C@@H]1C2C=CC(C2)[C@@H]1C(=O)O (stereo partly drawn) [Example 86, 3-[[6-[(5-fluoro-2-pyridyl)amino]-1,3-benzothiazol-2-yl]carbamoyl]bicyclo[2.2.1]hept-5-ene-2-carboxylic acid]	< 1000	
O=C1[C@@H]2C3C=CC(C3)[C@@H]2C(=O)N1c1nc2ccc(Nc3ccc(F)cn3)cc2s1 [Example 87, 4-[6-[(5-fluoro-2-pyridyl)amino]-1,3-benzothiazol-2-yl]-4-azatricyclo[5.2.1.02,6]dec-8-ene-3,5-dione]	< 1000	
O=C(Nc1nc2ccc(Nc3cccc(F)n3)cc2s1)[C@@H]1C2C=CC(C2)[C@@H]1C(=O)O (stereo partly drawn) [Example 88, 3-[[6-[(6-fluoro-2-pyridyl)amino]-1,3-benzothiazol-2-yl]carbamoyl]bicyclo[2.2.1]hept-5-ene-2-carboxylic acid]	< 1000	
O=C1[C@@H]2C3C=CC(C3)[C@@H]2C(=O)N1c1nc2ccc(Nc3cccc(F)n3)cc2s1 [Example 89, 4-[6-[(6-fluoro-2-pyridyl)amino]-1,3-benzothiazol-2-yl]-4-azatricyclo[5.2.1.02,6]dec-8-ene-3,5-dione]	1000 to 5000	
O=C1[C@@H]2C3C=CC(C3)[C@@H]2C(=O)N1c1nc2ccc(Nc3ccnc(C(F)(F)F)c3)cc2s1 [Example 90, 4-[6-[[2-(trifluoromethyl)-4-pyridyl]amino]-1,3-benzothiazol-2-yl]-4-azatricyclo[5.2.1.02,6]dec-8-ene-3,5-dione]	< 1000	
O=C(Nc1nc2ccc(Nc3cncc(C(F)(F)F)c3)cc2s1)[C@@H]1C2C=CC(C2)[C@@H]1C(=O)O (stereo partly drawn) [Example 91, 3-[[6-[[5-(trifluoromethyl)-3-pyridyl]amino]-1,3-benzothiazol-2-yl]carbamoyl]bicyclo[2.2.1]hept-5-ene-2-carboxylic acid]	5000 to 10000	
COc1cc(Nc2ccc3nc(N4C(=O)[C@@H]5C6C=CC(C6)[C@@H]5C4=O)sc3c2)ccn1 [Example 92, 4-[6-[(2-methoxy-4-pyridyl)amino]-1,3-benzothiazol-2-yl]-4-azatricyclo[5.2.1.02,6]dec-8-ene-3,5-dione]	1000 to 5000	
O=C(Nc1nc2ccc(Nc3ccc(OC(F)(F)F)cn3)cc2s1)[C@@H]1C2C=CC(C2)[C@@H]1C(=O)O (stereo partly drawn) [Example 93, 3-[[6-[[5-(trifluoromethoxy)-2-pyridyl]amino]-1,3-benzothiazol-2-yl]carbamoyl]bicyclo[2.2.1]hept-5-ene-2-carboxylic acid]	< 1000	
O=C1[C@@H]2C3C=CC(C3)[C@@H]2C(=O)N1c1nc2ccc(Nc3ccc(C(F)(F)F)cn3)cc2s1 [Example 95]	< 1000	
O=C(Nc1nc2ccc(Nc3ccc(C(F)(F)F)cn3)cc2s1)[C@@H]1C2C=CC(C2)[C@@H]1C(=O)O (stereo partly drawn) [Example 96, 3-[[6-[[5-(trifluoromethyl)-2-pyridyl]amino]-1,3-benzothiazol-2-yl]carbamoyl]bicyclo[2.2.1]hept-5-ene-2-carboxylic acid]	< 1000	
